Measurements reported in patent publication US20080255244A1, “CaM Kinase II Inhibitor Improves Retinoic Acid Therapy and Inhibits the Proliferation of Myeloid Leukemia Cells” (Fred Hutchinson Cancer Research Center, priority 2007, published 2008).

Columns and labels:
RARα/N-CoR interaction = target: T1, RARα/N-CoR interaction (Homo sapiens, UniProt P10276); assay: Mammalian two hybrid, Gal-N-CoR / RARαVP16, in MPRO promyelocytes; format: cell-based; details: ATRA six hours, KN62 48 hours
T1 construct: expressed in transfected cells; host or cells: MPRO promyelocytes (murine), electroporated
Source text: (§1) Transient transfections and luciferase assays. Murine PT67 fibroblasts were transfected utilizing calcium phosphate precipitation. All hematopoietic cell lines were transiently transfected by electroporation as previously detailed (Johnson, B. et al., Molecular and Cellular Biology 19:3372-3382 (1999)). In the transient transfections the LXSN vector (M28248) served as the expression vector for the wild type and site-directed mutagenized CaMKII and RARα coding region cDNAs. Human cDNA homologous to the coding region of rat CaMKIINα, a CaMKII inhibitory protein, was obtained by RT-PCR from HL60 RNA and cloned into the LXSN vector. The RA-responsive luciferase reporter harbors the RARE from the RARβ2 promoter as previously detailed (Si, J., and Collins, S. J., Blood 100:4401-4409 (2002)). The PON838 plasmid, a β-galactosidase reporter driven by the β-actin promoter, was used as an internal control to determine transfection efficiency for calculating relative luciferase activity.

[1] = tested on: NB4 promyelocytic leukemia cell line; assay: Differentiation of NB4 cells (morphology, Cd11b); format: cell-based, human; details: five days; for morphologic granulocytic differentiation of NB4: single agent, KN-62 5 μM, ATRA 10^−9 M
Method: (§2) FIG. 7. KN-62 regulates the differentiation of myeloid leukemia cell lines. (A) Wright Giemsa-stained HL-60 cells either (a) uninduced or treated for five days with (b) KN62 or (c) ATRA. (d) CD11b expression in HL-60 cells after five days exposure to KN62 (5 μM) or ATRA (1 μM). (B) Wright-Giemsa stained NB4 cells treated for five days with KN-62 (5 μM) and ATRA as indicated. […] (C) Cd11b expression of NB4 cells treated for five days with the indicated concentrations of RA and/or KN-62. (D) Western blots with the indicated antibodies were performed on HL60 cell lysates following incubation with KN62 for the indicated period of time. (E) Western blots of NB4 cell lysates following a five day incubation with the indicated compounds.
(§3) Antibodies and chemical reagents. Antibodies against RARα, βtubulin, CaMKIIα, CaMKIIβ, CaMKIIγ, CaMKIIδ, CaMKIα, as well as phosphospecific antibodies against CaMKII were all purchased from Santa Cruz Biotechnology. Antibodies against N-CoR and SMRT were from Upstate Biotechnology. CaMKIV antibody was from BD Biosciences. Anti-FLAG antibody was from Sigma while anti-HA antibody from Novachem. Quantitation of CD11b surface antigen expression was performed utilizing the fluorescent-activated cell sorter (FACS) with PE-conjugated anti-CD11b antibody from Becton Dickinson. KN-62, KN-93 and ionomycin were obtained from Calbiochem. ATRA and calmodulin agarose beads were from Sigma.

[2] = tested on: RAR transcriptional activity in HL60 cells; assay: RARE-driven luciferase reporter in HL60 cells; format: cell-based, human; details: KN62 5 uM, KN93 5 uM, ATRA 1 uM, six hours
Method: FIG. 1. CaM kinase isoform expression in hematopoietic cells. (A) The activity of an ATRA-responsive luciferase reporter (βRARE-tk-Luc, 25 μg) was assessed in electroporated HL60 cells six hours after treatment with the indicated concentrations of ionomycin and ATRA. (B) The activity of the luciferase reporter (βRARE-tk-Luc, 25 μg) was assessed in HL60 six hours after treatment with KN62 (5 uM), KN93 (5 uM) and ATRA (1 uM). (C) Western blots were performed utilizing the indicated antibodies. F9 (column 6) is a mouse embryonal carcinoma cell line. BaF3 (column 7) is a cultured pre-B cell line. BM cells (column 8) are kit-ligand dependent normal murine hematopoietic precursors. PT67 murine fibroblasts individually transduced with either rat CaMKIIα, human CaMKIα or human CaMKIV (column 9) together with brain lysates (column 1) serve as positive controls for the respective antibodies. (D) CaMK assays were performed on HL-60 cell lysates immunoprecipitated with the indicated antibodies.
as §1

HL-60 cells = assay: Differentiation of HL-60 cells (Wright Giemsa morphology, Cd11b FACS); format: cell-based, human; details: single agent; five days; KN62 5 μM
Method: as §2
as §3, with “ATRA and calmodulin agarose beads were from Sigma.” left out

K-562 cells = assay: Differentiation of K-562 cells; format: cell-based, human
Source text: (§4) Pharmacological CaMK inhibitors trigger myeloid leukemia cell differentiation. Particularly compelling evidence for the physiological importance of the CaMKII—mediated regulation of RAR activity is our experimental observation that KN-62, a pharmacological inhibitor of the CaMKs, enhances both RAR transcriptional activity (FIG. 1B) and the differentiation of certain myeloid leukemia cell lines (FIG. 7). Acute myelogenous leukemia (AML) is a heterogenous disease, and successful therapy with RA has been generally confined to those leukemias harboring RARα chromosome translocations.
Inhibitors of CaMKII inhibit the proliferation of myeloid leukemia cell lines. To determine whether inhibiting CaMKIIγ activity might have any effect on myeloid leukemia cell proliferation/viability, we treated K562 cells with the CaMK inhibitor KN93. […] The KN93 induced inhibition of K562 cell proliferation was accompanied by a reduction in the levels of the activated (autophosphorylated) CaMKIIγ (FIG. 12A, row 1).

[3] = tested on: HL60R cells (mutated RARα); assay: Differentiation of HL60R cells; format: cell-based, human; details: HL60R harbor a mutated RARα
Source text: as §4

CaMKs = details: inhibitors interfere with binding of Ca++/CaM to the CaMKs; cited from earlier work

T1 sequence (P10276 whole entry): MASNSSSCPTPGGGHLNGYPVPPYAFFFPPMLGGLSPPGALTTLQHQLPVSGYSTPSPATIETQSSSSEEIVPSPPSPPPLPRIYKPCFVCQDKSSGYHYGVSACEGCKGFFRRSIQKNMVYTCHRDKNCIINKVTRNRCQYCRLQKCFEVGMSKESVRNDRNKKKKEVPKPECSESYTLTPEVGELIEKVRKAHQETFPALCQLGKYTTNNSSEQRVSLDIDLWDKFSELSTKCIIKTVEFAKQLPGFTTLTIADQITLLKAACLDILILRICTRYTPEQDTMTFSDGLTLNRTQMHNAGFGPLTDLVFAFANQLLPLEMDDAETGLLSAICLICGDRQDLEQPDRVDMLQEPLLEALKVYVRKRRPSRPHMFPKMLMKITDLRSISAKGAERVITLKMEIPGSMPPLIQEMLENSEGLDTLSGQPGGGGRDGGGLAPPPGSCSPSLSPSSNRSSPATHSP

Compound	(UAS)5-driven luciferase reporter activity (RARα/N-CoR interaction) (RARα/N-CoR interaction)	morphologic granulocytic differentiation of NB4 [1]	RAR transcriptional activity (βRARE-tk-Luc reporter) [2]	HL-60 differentiation (morphologic differentiation and Cd11b expression) (HL-60 cells)	granulocytic differentiation of NB4 (morphology, Cd11b surface antigen) ([1]; KN-62 (5 μM) in combination with RA 10^−9M-10^−10M)	differentiation of K-562 (K-562 cells; preliminary studies, not shown)	KN62-mediated differentiation of HL60R [3]	IC50 (CaMKs) [nM]	morphologic differentiation of K562 (K-562 cells; KN93 treated K562)
CC1=C(/C=C/C(C)=C/C=C/C(C)=C/C(=O)O)C(C)(C)CCC1 [ATRA, All-trans retinoic acid]	marked decrease	little differentiation							
CN([C@@H](Cc1ccc(OS(=O)(=O)c2cccc3cnccc23)cc1)C(=O)N1CCN(c2ccccc2)CC1)S(=O)(=O)c1cccc2cnccc12 [KN-62]	significantly inhibits	relatively poor inducer	enhance	potent inducer	marked increase	does not induce	do not observe any	900	
COc1ccc(S(=O)(=O)N(CCO)c2ccccc2CN(C)C/C=C/c2ccc(Cl)cc2)cc1 [KN-93]			enhance					900	no effect
